Reference: article PMC3411647 (PLoS ONE, 2012)

Legend:
Format in all cases: cell-based
[1] = target: T1, hH1R (Homo sapiens, UniProt P35367); experiment: Intracellular Ca2+ flux assay in HEK-293 cells stably expressing hH1R
T1 construct: expressed in transfected cells
Excerpt: Figure 3 The selectivity of ZEL-H16 for hH3R in intracellular Ca^2+ flux assay and CRE-luciferase transcription assay. A–C, Intracellular Ca^2+ flux or CRE-driven luciferase activity induced by ZEL-H16 in HEK-293 cells stably expressing hH1R (A), hH2R (B), or hH4R (C). […] The presented data points are the mean ±SE of triplicate values from a single experiment and are representative of three separate experiments. Statistical analysis between ZEL-H16 added or not added for each concentration point in the kinetic graph was done using a t-test (PRISM software). G, Relative expression of hH1R, hH2R, hH3R and hH4R on transfected HEK-293 cells by ELISA quantification for Flag-tagged cell-surface receptors (***p<0.001, compared to non-transfected HEK 293 cells).
The stably H1R-expressing HEK-293 cells were harvested with Cell Stripper (Mediatech, Herndon, VA), washed twice with phosphate-buffered saline (PBS), and resuspended in Hanks’ balanced salt solution (140 mM NaCl, 5 mM KCl, 10 mM HEPES, pH 7.4, 1 mM CaCl2, 1 mM MgCl2, 1 mg/ml glucose) containing 0.025% bovine serum albumin. […] Calcium flux was measured using excitation at 340 and 380 nm in a Infinite 200 PRO multifunctional microplate reader (Tecan Austria GmbH, Grödig, AT ) and [Ca^2+]i was measured using the 340/380 excitation ratio (R 340/380).

[2] = target: T2, H3R (Homo sapiens, UniProt Q9Y5N1); experiment: ERK1/2 phosphorylation (Western blot) in HEK-293 cells stably expressing H3R
T2 construct: expressed in transfected cells
Method: Figure 7 Phosphorylation of ERK1/2 induced by ZEL-H16 in H3R-expressing HEK-293 cells. […] Signals were quantified by densitometric image analysis and p-ERK was normalized to a loading control (ERK). […] Concentration -dependent phosphorylation signals were quantified by densitometric analysis and p-ERK levels were normalized to total ERK levels. […] C, The phosphorylation of ERK1/2 induced by ZEL-H16 could be entirely abolished by co-incubation with H3R antagonist thioperamide (***p<0.001). Data represent the mean ±SE of three independent experiments.
HEK-293 cells stably expressing human H3R were grown in a 6-well plate and were serum starved 2 h in serum-free culture medium prior to stimulation. Cells were stimulated with the indicated H3R ligands at the designated concentrations. Incubations were stopped at the indicated times by removing the stimulation medium by aspiration. The cells were washed in ice-cold PBS and subsequently lysed in 100 µl of lysis buffer [20 mM HEPES (pH 7.5), 10 mM EDTA, 150 mM NaCl, 1% Triton X-100, and one tablet of complete protease inhibitor (Roche, Indianapolis, IN) per 50 mL] at 4°C on a rocker for 30 min. The lysates were centrifuged and separated by sodium dodecyl sulfate-polyacrylamide (12%) gel electrophoresis (SDS-PAGE) and blotted onto polyvinylidene difluoride membranes. Membranes were blocked for 1 h at room temperature in TBST (10 mmol/L Tris, 150 mmol/L NaCl, 0.1% Tween-20, pH 8.0) buffer containing 5% (v/w) skim milk. Membranes were probed overnight with primary antibodies against p-ERK1/2 (1∶1,000; Cell Signaling, Danvers, MA) in TBST containing 5% (v/w) BSA, and then probed with horseradish peroxidase-labeled secondary antibody (1∶5,000) for 1 h at room temperature in TBST containing 5% (v/w) milk powder. Immunoreactivity was detected by ECL assays. The blots were stripped and reprobed using antibodies against total ERK1/2 (1∶2,000) (Cell Signaling, Danvers, MA) as a control.

[3] = target: T3, mouse H3R (Mus musculus, UniProt P58406); experiment: ERK1/2 phosphorylation in neonatal mouse cortical neuron cultures; conditions: 5 µM
T3 construct: endogenous in cells; host or cells: primary cortical neurons of neonatal ICR mice
Method: Figure 8 Phosphorylation of ERK1/2 induced by ZEL-H16 in mouse cortical neurons. A, Time-dependent phosphorylation of ERK1/2 induced by 5 µM ZEL-H16 in neonatal mouse cortical neuron cultures. B, The phosphorylation of ERK1/2 induced by 50 µM ZEL-H16 for 20 min was mostly abolished by 100 ng/mL PTX or 10 µM thioperamide. Signals were quantified by densitometric image analysis and p-ERK was normalized to a loading control (ERK). The signal at each point is expressed as the percentage of the maximal p-ERK signal induced by ZEL-H16. Data represent the mean ±SE of three independent experiments.
Neuronal cortical cultures were prepared from neonatal ICR mice. Cerebral cortices were dissociated in sterile Dulbecco’s phosphate-buffered saline (D-PBS; Sigma-Aldrich, St. Louis, MO), and the neurons were isolated in the same medium containing 0.5% trypsin at 37°C for 10 min. After centrifugation, dissociated neurons were re-suspended in neurobasal medium (NBM; Gibco, Carlsbad, CA) supplemented with 2% B-27 and 0.5 mmol/L-glutamine (Gibco, Carlsbad, CA) and then plated on 48-well plates at a density of approximately 1.3×10^6 per well. After 7 days of culture, the neurons were serum starved for approximately 3 h prior to drug treatment. […]

T2 sequence (Q9Y5N1 whole entry): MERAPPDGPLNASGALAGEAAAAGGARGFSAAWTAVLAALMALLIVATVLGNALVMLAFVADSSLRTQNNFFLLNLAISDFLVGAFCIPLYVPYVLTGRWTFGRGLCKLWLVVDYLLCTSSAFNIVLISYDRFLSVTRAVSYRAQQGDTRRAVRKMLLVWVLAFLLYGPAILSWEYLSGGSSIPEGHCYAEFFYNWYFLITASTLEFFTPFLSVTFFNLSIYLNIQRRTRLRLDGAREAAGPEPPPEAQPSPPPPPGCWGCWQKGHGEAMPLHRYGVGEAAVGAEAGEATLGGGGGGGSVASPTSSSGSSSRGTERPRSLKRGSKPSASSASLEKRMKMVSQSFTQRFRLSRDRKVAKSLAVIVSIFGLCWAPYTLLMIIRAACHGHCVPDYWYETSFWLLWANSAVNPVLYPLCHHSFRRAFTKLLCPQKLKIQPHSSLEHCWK
T1 sequence (P35367 whole entry): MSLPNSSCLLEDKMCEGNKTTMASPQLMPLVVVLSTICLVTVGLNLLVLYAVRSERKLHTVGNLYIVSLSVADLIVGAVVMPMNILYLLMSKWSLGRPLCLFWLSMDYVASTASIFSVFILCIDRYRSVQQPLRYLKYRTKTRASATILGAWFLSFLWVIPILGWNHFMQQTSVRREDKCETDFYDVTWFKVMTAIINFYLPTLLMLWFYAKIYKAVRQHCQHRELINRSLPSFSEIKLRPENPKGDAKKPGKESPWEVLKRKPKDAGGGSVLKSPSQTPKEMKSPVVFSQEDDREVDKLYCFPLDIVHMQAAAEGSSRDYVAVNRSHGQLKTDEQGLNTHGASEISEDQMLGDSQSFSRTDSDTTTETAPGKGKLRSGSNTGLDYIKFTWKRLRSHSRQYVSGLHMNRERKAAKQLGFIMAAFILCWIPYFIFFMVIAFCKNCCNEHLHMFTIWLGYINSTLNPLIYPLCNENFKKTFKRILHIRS
T3 sequence (P58406 whole entry): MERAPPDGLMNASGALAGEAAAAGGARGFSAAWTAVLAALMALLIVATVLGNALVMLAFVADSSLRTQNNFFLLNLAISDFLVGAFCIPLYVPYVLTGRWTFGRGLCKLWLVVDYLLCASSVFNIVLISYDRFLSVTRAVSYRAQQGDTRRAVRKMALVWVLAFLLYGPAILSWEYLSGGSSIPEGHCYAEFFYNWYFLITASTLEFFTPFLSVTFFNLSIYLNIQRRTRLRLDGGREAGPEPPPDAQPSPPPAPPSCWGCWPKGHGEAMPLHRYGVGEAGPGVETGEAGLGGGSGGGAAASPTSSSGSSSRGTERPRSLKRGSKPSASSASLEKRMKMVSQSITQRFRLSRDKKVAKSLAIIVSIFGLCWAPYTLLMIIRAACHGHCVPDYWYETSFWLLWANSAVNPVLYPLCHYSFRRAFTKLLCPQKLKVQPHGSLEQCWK

EC50 ([2]; 10 nM to 100 µM, Western-blot densitometry): 1100 ± 100 nM | time of maximal ERK1/2 activation after stimulation ([2]; 1 µM): 2 min | Emax at 1 µM ([2]; HEK293, read-out: maximal activation of ERK1/2 relative to maximal activation induced by histamine, 1 µM): ~50% | time of maximal ERK activation after stimulation [3]: 20 min
Compound: c1ccc2c(c1)c(CCCN1CCCCC1)cn2CCCN1CCCCC1 [ZEL-H16]
antagonist activity: influence on Ca2+ release stimulated by histamine ([1]; ZEL-H16 added to histamine): neither modulate the intracellular Ca^2+ release stimulated by histamine | agonist activity: intracellular Ca2+ release ([1]; ZEL-H16 alone, compared to histamine): did not induce similar intracellular Ca^2+ release
